Consider 13 molecules from ChEMBL document CHEMBL1938311, “Potent adjuvantic activity of a CCR1-agonistic bis-quinoline” (Bioorg Med Chem Lett, 2012).

What is called EC50 is the concentration needed to bring the measured effect to its halfway point. The low end stands for an effect from little substance, the high end for a need for much substance.

The test system of series [1] is HEK293. Description: Transactivation of NF-kappaB expressed in HEK293 cells co-transfected TLR2/TLR3/TLR4/TLR5/TLR7/TLR8/TLR9/Nod-1 by alkaline phosphatase reporter gene assay. The format is cell-based.
The target of series [2] is C-X-C chemokine receptor type 4 (Homo sapiens) (UniProt P61073). Description: Agonist activity at CXCR4 expressed in CHO cells at 10^-6 to 10^-5 M by cellular dielectric spectroscopy. The format is functional, cell-based.
The target in series [3] is T1, C-C chemokine receptor type 1 (Homo sapiens, UniProt P32246).
T1 sequence (P32246 whole entry): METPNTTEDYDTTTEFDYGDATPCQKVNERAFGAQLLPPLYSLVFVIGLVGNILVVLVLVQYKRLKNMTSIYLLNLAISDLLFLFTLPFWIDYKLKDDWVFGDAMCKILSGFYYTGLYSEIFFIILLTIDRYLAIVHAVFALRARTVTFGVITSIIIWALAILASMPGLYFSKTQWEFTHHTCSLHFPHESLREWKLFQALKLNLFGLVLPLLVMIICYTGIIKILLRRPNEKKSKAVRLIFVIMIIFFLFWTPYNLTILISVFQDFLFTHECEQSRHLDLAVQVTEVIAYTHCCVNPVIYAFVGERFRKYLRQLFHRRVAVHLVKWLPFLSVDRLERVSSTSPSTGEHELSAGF
Description: Agonist activity at human CCR1 expressed in CHO cells by cellular dielectric spectroscopy. It is filed as functional, cell-based.

The test system of series [4] is Blood. Description: Pro-inflammatory activity in human whole blood assessed as IL-18 production upto 50 uM. The format is functional, tissue-based.
The target of series [5] is C-C chemokine receptor type 2 (Homo sapiens) (UniProt P41597). Description: Agonist activity at CCR2 expressed in CHO cells at 10^-6 to 10^-5 M by cellular dielectric spectroscopy. It is filed as functional, cell-based.
The subject of series [6] is Blood. Description: Pro-inflammatory activity in human whole blood assessed as IL-8 production upto 50 uM. It is filed as functional, tissue-based.
For series [7], the system named is Salmonella typhimurium. Description: Mutagenic activity in Salmonella Typhimurium TA98-S9 by Ames test. The format is toxicity, organism-based. The following applies: salmonella enterica subsp. enterica serovar typhimurium. (In general: In the Ames test, an excess of revertant colonies over the control signals mutagenicity.)
The test system of series [8] is Salmonella typhimurium. Description: Mutagenic activity in Salmonella Typhimurium TA100-S9 by Ames test. It is filed as toxicity, organism-based. The following applies: salmonella enterica subsp. enterica serovar typhimurium.
Series [9] deals with T2, C-X-C chemokine receptor type 2 (Homo sapiens) (UniProt P25025).
T2 sequence (whole entry): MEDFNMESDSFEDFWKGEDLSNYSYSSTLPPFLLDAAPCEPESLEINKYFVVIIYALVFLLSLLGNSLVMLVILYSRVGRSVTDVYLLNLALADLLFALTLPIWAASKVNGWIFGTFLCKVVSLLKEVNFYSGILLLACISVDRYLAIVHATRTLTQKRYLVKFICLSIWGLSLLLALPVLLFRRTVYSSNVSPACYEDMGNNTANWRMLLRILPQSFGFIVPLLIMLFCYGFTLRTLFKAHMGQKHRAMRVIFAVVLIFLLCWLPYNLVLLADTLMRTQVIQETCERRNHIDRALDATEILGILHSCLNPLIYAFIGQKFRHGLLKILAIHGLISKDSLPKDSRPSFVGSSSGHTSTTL
Description: Agonist activity at CXCR2 expressed in CHO cells at 10^-6 to 10^-5 M by cellular dielectric spectroscopy. It is filed as functional, cell-based.

For series [10], the system named is PBMC. Description: Modulation of inflammation in human PBMC by transcriptional profiling. The format is functional, cell-based.
The test system of series [11] is Mus musculus. Description: Toxicity in CF-1 mouse assessed as mortality up to 100 mg/kg, ip administered as single dose measured at 48 hrs. Also noted: dose 100 mg/kg, route intraperitoneal. The following applies: in vivo. The format is organism-based.
The subject of series [12] is Blood. Description: Antiinflammatory activity in human whole blood assessed as IL-10 production upto 50 uM. It is filed as functional, tissue-based.
The subject of series [13] is Blood. Description: Pro-inflammatory activity in human whole blood assessed as IL-12 production upto 50 uM. It is filed as functional, tissue-based.
Series [14] relates to Blood. Description: Pro-inflammatory activity in human whole blood assessed as IL1-beta production upto 50 uM. It is filed as functional, tissue-based.
Series [15] deals with Mus musculus. Description: Adjuvantic activity in CF-1 mouse assessed as increase in bovine alpha-lactalbumin-elicited IgG1 production at 50 ug, im followed by booster dose administered on day 14 measured after 21 days. It is filed as functional, organism-based.
Series [16] relates to Salmonella typhimurium. Description: Mutagenic activity in Salmonella Typhimurium TA1535-S9 by Ames test. It is filed as toxicity, organism-based. The note with it: salmonella enterica subsp. enterica serovar typhimurium.
The subject of series [17] is PBMC. Description: Immunostimulatory activity against human PBMC by transcriptional profiling. The format is functional, cell-based.
The subject of series [18] is Blood. Description: Pro-inflammatory activity in human whole blood assessed as IL-6 production upto 50 uM. The format is functional, tissue-based.
Series [19] deals with Mus musculus. Description: Adjuvantic activity in CF-1 mouse assessed as increase in bovine alpha-lactalbumin-elicited IgG2a production at 50 ug, im followed by booster dose administered on day 14 measured after 21 days. The format is functional, organism-based.
In series [20] the test system is Mus musculus. Description: Adjuvantic activity in CF-1 mouse assessed as increase in bovine alpha-lactalbumin-elicited antibodies production at 50 ug, im followed by booster dose administered on day 14 measured after 21 days by surface-plasmon resonance. It is filed as functional, organism-based.
Series [21] concerns HEK293. Description: Transactivation of NF-kappaB expressed in HEK293 cells by alkaline phosphatase reporter gene assay. It is filed as cell-based. In general terms: In a reporter assay the amount or activity of a reporter protein is the signal.
Series [22] addresses T3, C-C chemokine receptor type 3 (Homo sapiens) (UniProt P51677).
T3 sequence (whole entry): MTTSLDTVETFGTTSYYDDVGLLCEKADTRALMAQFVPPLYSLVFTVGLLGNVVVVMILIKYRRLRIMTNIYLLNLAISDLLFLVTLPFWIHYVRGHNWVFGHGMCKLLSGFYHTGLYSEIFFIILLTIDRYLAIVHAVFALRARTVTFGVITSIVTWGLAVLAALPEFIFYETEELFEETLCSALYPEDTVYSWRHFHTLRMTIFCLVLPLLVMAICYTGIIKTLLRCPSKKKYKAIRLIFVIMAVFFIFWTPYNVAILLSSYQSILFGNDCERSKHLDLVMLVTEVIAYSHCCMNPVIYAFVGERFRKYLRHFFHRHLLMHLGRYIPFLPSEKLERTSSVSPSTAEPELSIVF
Description: Agonist activity at CCR3 expressed in CHO cells at 10^-6 to 10^-5 M by cellular dielectric spectroscopy. The format is functional, cell-based.

Series [23] relates to Blood. Description: Pro-inflammatory activity in human whole blood assessed as TNF-alpha production upto 50 uM. It is filed as functional, tissue-based.

Activity calls are given as the source filed them. No cut-off for these calls is given here.

Chain of C-C chemokine receptor type 2 (Homo sapiens) (P41597 whole entry, looked up): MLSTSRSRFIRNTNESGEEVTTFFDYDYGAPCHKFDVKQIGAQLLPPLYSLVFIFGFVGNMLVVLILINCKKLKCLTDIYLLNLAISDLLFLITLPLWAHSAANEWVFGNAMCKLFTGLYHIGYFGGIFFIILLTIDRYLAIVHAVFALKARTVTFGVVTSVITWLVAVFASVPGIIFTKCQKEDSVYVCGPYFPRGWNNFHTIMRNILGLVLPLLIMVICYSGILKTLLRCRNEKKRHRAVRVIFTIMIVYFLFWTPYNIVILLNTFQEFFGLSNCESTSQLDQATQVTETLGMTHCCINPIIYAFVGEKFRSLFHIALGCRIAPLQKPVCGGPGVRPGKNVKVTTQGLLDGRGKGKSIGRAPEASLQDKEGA
Chain of C-X-C chemokine receptor type 4 (Homo sapiens) (P61073 whole entry): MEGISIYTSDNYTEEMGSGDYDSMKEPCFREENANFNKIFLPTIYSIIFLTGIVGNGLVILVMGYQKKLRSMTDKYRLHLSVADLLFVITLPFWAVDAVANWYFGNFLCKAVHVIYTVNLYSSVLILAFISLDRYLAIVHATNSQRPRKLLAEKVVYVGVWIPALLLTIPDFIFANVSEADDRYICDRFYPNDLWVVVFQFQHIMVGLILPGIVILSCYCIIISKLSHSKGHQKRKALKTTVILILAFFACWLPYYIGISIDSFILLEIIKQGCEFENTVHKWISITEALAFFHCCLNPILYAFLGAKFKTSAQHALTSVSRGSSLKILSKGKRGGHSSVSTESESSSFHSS

As to `Clc1ccc2c(NCCNc3ccnc4cc(Cl)ccc34)ccnc2c1`, in the series with HEK293 [1], the result was inactive.

Take `Clc1ccc2c(NCCCNc3ccnc4cc(Cl)ccc34)ccnc2c1`: in the series on HEK293 [1], the result was inactive.

`Clc1ccc2c(NCCCCCCCCCCCCNc3ccnc4cc(Cl)ccc34)ccnc2c1`: the outcome in the series with HEK293 [1] was inactive.

On to `Clc1ccc2c(NCCCCCCCCNc3ccnc4cc(Cl)ccc34)ccnc2c1`, for which, in the series on HEK293 [1], the outcome was inactive.

For `Clc1ccc2c(NCCCCNc3ccnc4cc(Cl)ccc34)ccnc2c1`, the outcome (in [2]; in the series with Blood [4]; in series [5]; in the series on Blood [6]; in [9]; in the series on PBMC [10]) was inactive. The result with Blood [12], in the series on HEK293 [1], in the series on Blood [13], in the series with Blood [14], in the series with PBMC [17] and in the series with Blood [18] was inactive. Moreover, the result (in series [22]; in the series with Blood [23]) was inactive. The molecule also returned an EC50 in series [3] of 2000 nM. Also, the Activity entry with Salmonella typhimurium [7], in the series with Salmonella typhimurium [8], in the series with Mus musculus [11] and in the series with Salmonella typhimurium [16] was “Non-toxic” each time. The outcome in the series on Mus musculus [15], in the series on Mus musculus [19], in the series with Mus musculus [20] and with HEK293 [21] was Active.

As to `Clc1ccc2c(NCCCCCCNc3ccnc4cc(Cl)ccc34)ccnc2c1`, the result in the series on HEK293 [1] was inactive.

Regarding `Clc1ccc2c(NCCCCCNc3ccnc4cc(Cl)ccc34)ccnc2c1`, in the series on HEK293 [1], the outcome was inactive.

`CCCCCCCCCCCCCCCC(=O)OCC(CSC[C@H](N)C(=O)N[C@@H](CO)C(=O)O)OC(=O)CCCCCCCCCCCCCCC` (stereo not given in full): the outcome in the series on Mus musculus [15], in the series on Mus musculus [19] and with Mus musculus [20] was Active.

As to `CCN(CC)CCCC(C)Nc1ccnc2cc(Cl)ccc12` (stereo not given), the result with HEK293 [1] was inactive.

Turning to `CCCc1nc2c(N)nc3ccccc3c2s1`, the result in the series with Blood [4], with Blood [6], with Blood [12], with Blood [13], in the series with Blood [14] and in the series with Blood [18] was Active. In addition, the result in the series on Blood [23] was Active.

As to `Clc1ccc2c(NCCCCCCCNc3ccnc4cc(Cl)ccc34)ccnc2c1`, the result in the series with HEK293 [1] was inactive.

In the case of `Clc1ccc2c(NCCCCCCCCCCNc3ccnc4cc(Cl)ccc34)ccnc2c1`, the outcome in the series with HEK293 [1] was inactive.

For `CCCCCCCCCCCCCC(=O)OC(CCCCCCCCCCC)CC(=O)N[C@H]1[C@H](OC[C@H]2O[C@H](O)[C@H](NC(=O)CC(O)CCCCCCCCCCC)[C@@H](OC(=O)CC(O)CCCCCCCCCCC)[C@@H]2O)O[C@H](CO)[C@@H](OP(=O)(O)O)[C@@H]1OC(=O)CC(CCCCCCCCCCC)OC(=O)CCCCCCCCCCCCC` (stereo not given in full), the result in the series on Mus musculus [15], in the series on Mus musculus [19] and in the series with Mus musculus [20] was Active.
